Results published in US20060037085A1, “Animal model for fetal alcohol syndrome and methods of treatment” (priority 2004, published 2006).
Like-named read-outs stand apart in the source and are kept apart here. Marks after values point to notes of the source that are not given here.

What was measured:
[1] = tested on: embryonic hippocampal cultures; details: against 400-2400 mg/dl of ethanol treatment; cited from earlier work
[2] = tested on: rats; details: pregnant rats treated with folic acid concomitantly to ethanol administration; cited from earlier work
[3] = tested on: Xenopus laevis tadpole brain; assay: Histological analysis of brain injury (coronal brain sections of tadpoles)
Excerpt: Histological analysis of brain injury. Embryos were fixed in 2% paraformaldehyde, dehydrated, embedded in paraffin. The embryos were sectioned coronally through the head and stained with hematoxylin and eosin.
The EF-1α transcript was detected as an internal control for equal RNA load.

[4] = tested on: alcohol-induced ROS production; assay: ROS measurement (hydrogen peroxide level in embryos); assay type: in vivo, Xenopus laevis; details: vitamin C pretreatment 2 hours before 0.6% ethanol
Experimental: (A) Embryos were pretreated with or without vitamin C two hours before alcohol treatment (0.6%, 12 h, from stage 13 to 22). The embryos were harvested at stage 22 and the hydrogen peroxide level measured by the colorimetric quantitation of hydrogen peroxide method (total hydroperoxides), according to the protocols provided by the manufacturer (BIOXYTECH H202-560 kit, OXIS International, Inc., USA); (B) The NF-κB mediated transcriptional activity was measured using NF-κB luciferase reporter plasmid (pLuc-NF-κB) containing IL-6 promoter region with four repeats of NF-κB binding sites.
ROS measurement. […] At the end of the experiment, embryos were harvested and total ROS content was determined by the calorimetric quantitation of hydrogen peroxide method (total hydroperoxides), following protocols provided by the manufacturer (BIOXYTECH H202-560 kit, OXIS International, Inc. USA).

[5] = tested on: Xenopus laevis embryos; details: for Alive / dead: 15 embryos; for Body length / Eye distance: mean ± SD
Experimental: Morphological measurements of microcephaly and growth retardation.
Vitamin C treatment. Embryos at stage 13 (initial neural plate stage) were collected and divided into groups, each containing 15-20 embryos and incubated in a plastic petri dish containing MMR medium as stated above. Vitamin C, having a concentration of 100 μM, was added either concomitantly, 2 hours before, or 2 hours after the initiation of a 12-hour alcohol exposure. The tadpoles were fixed and measurements were made as stated above.

[6] = tested on: Pax6, Otx2, Sox2, Sox3, NCAM, Vent1; assay: RT-PCR of neural markers (animal caps or embryos); assay type: cell-based, Xenopus laevis
Excerpt: RT-PCR Animal caps were dissected from embryos at stage 8.5 and cultured in 67% Leibovitz's L-15 medium, pH 7.5 in the presence or absence of varied concentration of alcohol until stage 22. Total RNA was extracted from cultured animal caps with Trizol reagent (Invitrogen). Primer sets and PCR conditions for NCAM and Pax6 have been described in our previous reports (Peng, Neurobiol. Dis., 2004; Peng, J. Mol. Biol., 2004). PCR products were subject to electrophoresis on TBE gel and visualized by ethidium bromide staining.
Animal cap explant assay. […] Total RNA was extracted from animal caps or whole embryos using TRIZOL reagent (Invitrogen). The total RNA was reverse transcribed using the Superscript system (Invitrogen), and the first strand cDNA of the target gene amplified by PCR.
The Xenopus animal cap is composed of pluripotent cells that can be induced to form neural, mesodermal, or epidermal tissue, and is a useful tissue to assess the activity of various factors on neural development. Animal caps were treated with varied concentrations of alcohol as indicated.

[7] = 100 μM VitC 2 hours after start of 12-hour 0.6% EtOH (Post-VitC)
[8] = 100 μM VitC 2 hours before 12-hour 0.6% EtOH (Pre-VitC)
[9] = 100 μM VitC concomitantly with 12-hour 0.6% EtOH

**Q.** Which “protection of embryonic hippocampal cultures” value [1] does the source give for `CC1=C(/C=C/C(C)=C/C=C/C(C)=C/C=C/C=C(C)/C=C/C=C(C)/C=C/C2=C(C)CCCC2(C)C)C(C)(C)CCC1` [β-carotene] here?
**A.** Its value is “protected”.

**Q.** For `Nc1nc2ncc(CNc3ccc(C(=O)N[C@@H](CCC(=O)O)C(=O)O)cc3)nc2c(=O)[nH]1` [folic acid], which “amount of ethanol-mediated oxidative stress” value [2] is on record?
**A.** The value was “mitigated”.

**Q.** Which “forebrain areas, histology at stage 45” value ([3]; vitamin C 2 hours before addition of alcohol) does the source give for `O=C1O[C@H]([C@@H](O)CO)C(O)=C1O` [VitC, ascorbic acid] here?
**A.** Its value is “significant restoration of the forebrain areas”.

**Q.** What about the “width of the canal in diencephalon areas” value ([3]; vitamin C concomitantly with alcohol) of the same compound?
**A.** The value was “could not narrow down the canal”.

**Q.** What about the “ethanol-induced hydrogen peroxide level” value [4] of the same compound?
**A.** The value was “suppressed”.

**Q.** What about the Alive [5, 7] of the same compound?
**A.** Its Alive is 14.

**Q.** And the dead [5, 7]?
**A.** The dead was 1.

**Q.** What about the Body length [5, 7] of the same compound?
**A.** The Body length was 9.60 ± 013^b mm.

**Q.** What about the Eye distance [5, 7] of the same compound?
**A.** The Eye distance was 1.82 ± 004^b mm.

**Q.** And the Alive [5, 8]?
**A.** The Alive was 14.

**Q.** And the dead [5, 8]?
**A.** Its dead is 1.

**Q.** And the Body length [5, 8]?
**A.** The Body length was 11.88 ± 006^a mm.

**Q.** What about the Eye distance [5, 8] of the same compound?
**A.** Its Eye distance is 2.13 ± 002^a mm.

**Q.** And the Alive [5, 9]?
**A.** The Alive was 14.

**Q.** What about the dead [5, 9] of the same compound?
**A.** The dead was 1.

**Q.** And the Body length [5, 9]?
**A.** Its Body length is 10.19 ± 014^a mm.

**Q.** What about the Eye distance [5, 9] of the same compound?
**A.** The Eye distance was 1.88 ± 003^a,b mm.

**Q.** And the dead ([5]; VitC alone, 100 μM, no ethanol)?
**A.** The dead was 1.

**Q.** What about the “severity of alcohol-induced microencephaly and growth retardation” value ([5]; pretreating embryos with 100 μM vitamin C) of the same compound?
**A.** Its value is “significantly reduced the severity”.

**Q.** What about the “expression of NCAM and Pax6 (RT-PCR)” value ([6]; ethanol treated embryos, vitamin C pretreatment) of the same compound?
**A.** The value was “restored significantly”.

**Q.** Which “expression of Pax6, Otx2, Sox2, Sox3, and NCAM” value ([6]; animal caps treated with 100 M of H2O2 instead of alcohol) does the source give for `OO` [H2O2, hydrogen peroxide] here?
**A.** The value was “reduced the expression”.

**Q.** Which “protection of embryonic hippocampal cultures” value [1] does the source give for Vitamin E here?
**A.** The value was “protected”.
